# According to patent publication US5532231A, “Antibacterial agent” (priority 1994, dated 1996):
# Legend:
# E. coli ESS Kan^r [1] = assay: Paper disc filter antibiotic assay (zone of inhibition); type: cell-based, Escherichia coli; conditions: paper disc
# Method: Escherichia coli ESS Kan^r, is a kanamycin resistant strain of E. coli ESS, derived by transducing E. coli ESS with P1:TnV, Kan^r. This strain was used for the standard antibiotic assays.
# LB Kan medium was solidified by 1.5% Bacto agar (Difco). For the antibiotic assay, Nutrient Broth agar plates were used. NB medium is 0.8% Nutrient Broth (Difco) containing 0.5% NaCl (Merck). NB was solidified by 1.8% Bacto agar (Difco). The NB plates were overlaid by 3.5 ml NB soft agar (0.9% Bacto agar) mixed with 0.1 ml E. coli ESS Kan^r overnight culture.
# (§1) Antibiotic activity against E. coli ESS Kan^r was determined by the paper disc filter assay (Leo et al., 1945). Unknown quantities of antibiotic TA or Focusin, dissolved in ethanol, saline or NB were applied to paper disc filters (6 mm diameter; Schleicher and Schull). After allowing the ethanol to evaporate in the hood for about 15 mins, the dry filters were placed on nutrient broth plates which had been overlaid with an overnight culture of E. coli ESS Kan^r as described above.
# (§2) The diameter of the zone of inhibition was recorded after 18 hours in incubation at 37° C. The concentration of the antibacterial agents were determined from a standard inhibition curve prepared with known quantities of TA and Focusin.
# [2] = type: physicochemical
# Method: Focusin and TA at concentrations of 3 mg/ml were diluted either in ethanol or in saline containing 1% ethanol to yield a final concentration in each case of 30 μg/ml. The solutions were mixed at 37° C. for one hour under shaking, and then were centrifuged at 5000 g for 10 minutes. Several samples were taken from the supernatants of the tubes and were applied on disc filters in order to determine the concentration of the antibacterial agents in the saline and ethanol solutions, by the paper disc bioassay method.
# E. coli ESS Kan^r [3] = assay: Sensitivity to combined exposure to light and air (remaining activity by paper disc bioassay); type: physicochemical, Escherichia coli
# Method: as §1, §2
# 100 ng of TA and Focusin dissolved in ethanol were applied to paper filters and allowed to dry in a hood for 15 mins. The filters were then exposed to light from a fluorescent lamp in the hood; the distance from the lamp to the filters was approximately 40 cm. The controls were placed in the dark under a plastic box within the hood.
# After exposure of the filters to the light for varying periods of time, the remaining activity of the agents was measured by the paper disc bioassay and the results are shown in the following Table 1: […]
# E. coli ESS [4] = assay: Antimicrobial spectrum, liquid media, viable cell count; type: cell-based, Escherichia coli; conditions: saturating concentrations
# Method: (§3) Saturated solutions of TA and Focusin were prepared by adding 1.14 μg TA and 7 μg Focusin to 1 ml LB (final conc. of 1% ethanol). About 10^5 bacteria of various strains were then added. The control was bacteria in the same medium with no antibacterial agents. The bacteria were introduced at 37° C. with shaking at 100 rpm. When the control became turbid, viable cell count was performed on LB agar plates. Growth inhibition is presented as percentage of the no antibiotic control.
# E. coli K-12 = assay: as above; type: cell-based, Escherichia coli; conditions: saturating concentrations
# Method: as §3
# Bacillus subtilis = assay: as above; type: cell-based; conditions: saturating concentrations
# Method: as §3
# Citrobacter diversus = assay: as above; type: cell-based; conditions: saturating concentrations
# Method: as §3
# Enterobacter = assay: as above; type: cell-based; conditions: saturating concentrations
# Method: as §3
# Erwinia herbicola = assay: as above; type: cell-based; conditions: saturating concentrations
# Method: as §3
# Helicobacter pilori = assay: as above; type: cell-based; conditions: saturating concentrations
# Method: as §3
# Klebsiella Gr47 = assay: as above; type: cell-based; conditions: saturating concentrations; hospital strain
# Method: as §3
# Klebsiella pneumoniae = assay: as above; type: cell-based; conditions: saturating concentrations; hospital strain
# Method: as §3
# Klebsiella sp = assay: as above; type: cell-based; conditions: saturating concentrations; hospital strain
# Method: as §3
# Proteus vulgaris = assay: as above; type: cell-based; conditions: saturating concentrations
# Method: as §3
# Providencia strautii = assay: as above; type: cell-based; conditions: saturating concentrations
# Method: as §3
# Pseudomonas aeruginosa = assay: as above; type: cell-based; conditions: saturating concentrations
# Method: as §3
# Salmonella thyphimurium = assay: as above; type: cell-based; conditions: saturating concentrations
# Method: as §3
# Serratia marcescens = assay: as above; type: cell-based; conditions: saturating concentrations
# Method: as §3
# Staphylococcus albus = assay: as above; type: cell-based
# Method: as §3
# Staphylococcus aureas = assay: as above; type: cell-based, Staphylococcus aureus; conditions: saturating concentrations
# Method: as §3
# Mycobacteria smegmatis = assay: as above; type: cell-based, Mycobacterium smegmatis; conditions: saturating concentrations
# Method: as §3
# E. coli ESS [5] = assay: Bactericidal effect when bound to mouse tissues; type: cell-based, Escherichia coli; conditions: 4 μg TA or 20 μg Focusin, 5 h
# Method: Two mice were sacrificed by exposure to ether. The bladder, eyes, intestines, lungs, heart, teeth, liver, spleen and kidneys were removed by dissection. Each experimental set consisted of three test tubes. A piece of each tissue type was placed in each of the three test tubes. The amount of tissue per tube were as follows: bladder 1/3, eye 1/2, intestine 1 cm, lung 1/2, heart 1/3, fang tooth 1/2, liver 1/3, spleen 1/3 and kidney 1/2. One test tube contained a control tissue which was treated only with the solvent used for dissolving the antibacterial agent, usually 50% ethanol. The second and third test tubes contained tissues were treated with 4 μg TA or 20 μg Focusin, respectively.
# Following application of the antibacterial agent or the control solution, the tissues were allowed to dry in a hood for 30 mins., and then placed in the test tubes.
# One milliliter of sterile saline was then added to each test tube and the tubes were then incubated with shaking (50 rpm) at 37° C. for one hour. The amount of antibacterial agent that was released to the saline was measured following chloroform extraction by the disc filter assay.
# The tissues were then transferred to exponentially growing cultures of E. coli ESS in NB at a concentration of 10^5 cells/ml. Incubation was at 37° C. and continued for 5 hours, following which the number of viable cells was checked.
# [6] = test system: Gram-positive and Gram-negative bacteria; conditions: literature; cited from earlier work
# [7] = test system: severe gingivitis and plaque; conditions: humans; cited from earlier work
smiles,measurement,setting,value
"CCCC1OC(=O)C(C)CC(C)CCCCC(=O)CCCC(CC)C=CC=C(COC)CCC(O)C(O)CC(O)CNC1=O (stereo not drawn) [TA, reference compound]",amount giving an inhibition zone of 11 mm,E. coli ESS Kan^r [1]; zone 11 mm,64 ng
same,amount required to obtain a zone of inhibition of about 2 mm,E. coli ESS Kan^r [1]; zone about 2 mm,7.5 ng
same,solubility in ethanol,[2],completely soluble
same,solubility in saline,"[2]; saline with 1% ethanol, 1 h",about 1.14 μg/ml
same,activity after exposure to light and air,E. coli ESS Kan^r [3]; 0 hours,100%
same,activity after exposure to light and air,E. coli ESS Kan^r [3]; 1 hour,70%
same,activity after exposure to light and air,E. coli ESS Kan^r [3]; 4 hours,63%
same,activity after exposure to light and air,E. coli ESS Kan^r [3]; 6 hours,26%
same,activity after exposure to light and air,E. coli ESS Kan^r [3]; 8 hours,21%
same,activity after exposure to light and air,E. coli ESS Kan^r [3]; 20 hours,19%
same,degradation at combined exposure to light and air,E. coli ESS Kan^r [3]; after 20 hours,81%
same,degradation at combined exposure to light and air,"E. coli ESS Kan^r [3]; after one hour, 60 min",30%
same,killing,E. coli ESS [4],100%
same,killing,E. coli K-12,100%
same,killing,Bacillus subtilis,100%
same,killing,Citrobacter diversus,100%
same,killing,Enterobacter,100%
same,killing,Erwinia herbicola,100%
same,killing,Helicobacter pilori,100%
same,killing,Klebsiella Gr47,100%
same,killing,Klebsiella pneumoniae,100%
same,killing,Klebsiella sp,100%
same,killing,Proteus vulgaris,100%
same,killing,Providencia strautii,100%
same,killing,Pseudomonas aeruginosa,0%
same,killing,Salmonella thyphimurium,60%
same,killing,Serratia marcescens,100%
same,incubation time after which the strain began to show sensitivity,Staphylococcus albus; saturating concentrations,> 46 h
same,killing,Staphylococcus albus; saturating concentrations (TA),83%
same,killing,Staphylococcus aureas,100%
same,killing,Mycobacteria smegmatis,0%
same,Inhibition % by the treated tissue,E. coli ESS [5]; bladder,100%
same,Inhibition % by the treated tissue,E. coli ESS [5]; heart,100%
same,Inhibition % by the treated tissue,E. coli ESS [5]; intestine,99%
same,Inhibition % by the treated tissue,E. coli ESS [5]; kidney,100%
same,Inhibition % by the treated tissue,E. coli ESS [5]; liver,96%
same,Inhibition % by the treated tissue,E. coli ESS [5]; lungs,100%
same,Inhibition % by the treated tissue,E. coli ESS [5]; spleen,100%
same,Inhibition % by the treated tissue,E. coli ESS [5]; teeth,100%
same,growth inhibition (in words),[6],capable of inhibiting growth of a variety of Gram-positive and Gram-negative bacteria
same,mode of growth inhibition (in words),[6],lysis of growing bacteria as a result of blocking of cell wall synthesis
same,effect on gingivitis and plaque (in words),[7],to treat severe gingivitis and to reduce plaque in humans
